From publication PMC6201084 (Antimicrobial Agents and Chemotherapy, 2018)
Values joined by “and” are separate entries in the source; they are usually repeats but may differ in a detail not shown here. Equal values may be shown once.

Tests used:
[1] = molecular target: neuraminidase (NA) of influenza B/Singapore/GP702/2015 (MUT-N197, D197N NA substitution) (Influenza B virus, UniProt A0A1S5RAG6, D197N); assay type: biochemical
[2] = molecular target: neuraminidase (NA) of influenza B/Perth/136/2015 (MUT-Y273, H273Y NA substitution) (Influenza B virus, UniProt A0A1S5RAG6, H273Y); assay type: biochemical

With `CCC(CC)[C@H](NC(C)=O)[C@@H]1[C@H](O)[C@@H](C(=O)O)C[C@H]1N=C(N)N` [Peramivir, peramivir] the “Fold difference in IC50 from corresponding wild-type value” [1] was 3.0 ± 0.7 (3) fold, the IC50 ([1]; read-out: IC50 (nM), mean ± SD) was 3 nM and the “Fold difference in IC50 from corresponding wild-type value” [2] was 85 fold and 80.9 ± 6.8 (85)^b fold. For the same compound, the IC50 ([2]; read-out: IC50 (nM), mean ± SD) was 80.9 nM.
